Source: the SangsterLogP compilation

Structure (SMILES) | logP
C(=NN=c1ccn(CCCCc2ccccc2)cc1)c1cccc2ccccc12 | 4.3
Cc1cccc(C)c1C=NN=c1ccn(CCCCc2ccccc2)cc1 | 3.3
COc1ccccc1C=NN=c1ccn(CC=Cc2ccccc2)cc1 | 3.5
CCCCCCn1ccc(=NN=Cc2ccc(C)cc2)cc1 | 3.8
COc1cccc(OC)c1C=NN=c1ccn(CCCCc2ccccc2)cc1 | 3.4
Clc1ccc(C=NN=c2ccn(Cc3ccccc3)cc2)cc1 | 3.8
COc1ccc(C=NN=c2ccn(CCc3ccccc3)cc2)cc1 | 3.4
C(=NN=c1ccn(CCCc2ccccc2)cc1)c1ccc2ccccc2c1 | 4.3
C(=NN=c1ccn(Cc2ccccc2)cc1)c1cccc2ccccc12 | 4.2
Clc1ccccc1C=NN=c1ccn(CCCc2ccccc2)cc1 | 3.9
Cc1ccc(C=NN=c2ccn(CCCCc3ccccc3)cc2)cc1 | 4
Oc1ccccc1C=NN=c1ccn(Cc2ccccc2)cc1 | 3.2
COc1ccccc1C=NN=c1ccn(CCc2ccccc2)cc1 | 3.4
Cc1cccc(C)c1C=NN=c1ccn(Cc2c(Cl)cccc2Cl)cc1 | 3.3
O=[N+]([O-])c1ccc(C=NN=c2ccn(CC=Cc3ccccc3)cc2)cc1 | 3.8
COc1ccc(C=NN=c2ccn(CCCCCc3ccccc3)cc2)cc1 | 3.5
Clc1ccc(C=NN=c2ccn(Cc3ccccc3I)cc2)cc1 | 3.9
C(=NN=c1ccn(CCCCCc2ccccc2)cc1)c1c2ccccc2cc2ccccc12 | 4.4
O=[N+]([O-])c1ccc(C=NN=c2ccn(CCCc3ccccc3)cc2)cc1 | 3.8
Clc1ccc(C=NN=c2ccn(Cc3ccccc3Br)cc2)cc1 | 3.9
Cc1ccc(C=NN=c2ccn(CCCN3C(=O)c4ccccc4C3=O)cc2)cc1 | 3.6
Fc1ccc(Cn2ccc(=NN=CCCc3ccccc3)cc2)cc1 | 3.9
Fc1ccc(C=NN=c2ccn(CCCc3ccccc3)cc2)cc1 | 3.8
C(=NN=c1ccn(CCCCc2ccccc2)cc1)c1c2ccccc2cc2ccccc12 | 4.4
C(CCc1ccccc1)=NN=c1ccn(Cc2ccccc2)cc1 | 4
Cc1ccc(C=NN=c2ccn(CCc3ccccc3)cc2)cc1 | 4
Fc1cccc(C=NN=c2ccn(CCCc3ccccc3)cc2)c1 | 3.8
Cc1ccc(C=NN=c2ccn(Cc3ccccc3)cc2)cc1 | 3.9

Structure (SMILES) | logP
Cc1ccc(C=NN=c2ccn(CCCc3ccccc3)cc2)cc1 | 4
Cc1cccc(C)c1C=NN=c1ccn(Cc2ccccc2)cc1 | 4
C(=NN=c1ccn(Cc2ccccc2)cc1)c1c2ccccc2cc2ccccc12 | 4.3
COc1ccc(C=NN=c2ccn(CC=Cc3ccccc3)cc2)cc1 | 3.4
Clc1ccccc1C=NN=c1ccn(CCc2ccccc2)cc1 | 3.9
O=C1c2ccccc2C(=O)N1CCCn1ccc(=NN=Cc2ccc3ccccc3c2)cc1 | 4.1
Clc1cccc(Cl)c1C=NN=c1ccn(CCc2ccccc2)cc1 | 4
COc1cccc(OC)c1C=NN=c1ccn(Cc2ccccc2)cc1 | 3.3
Brc1ccccc1Cn1ccc(=NN=CCCc2ccccc2)cc1 | 3.9
COc1ccc(C=NN=c2ccn(CCCCCN3C(=O)c4ccccc4C3=O)cc2)cc1 | 3.4
COc1ccccc1C=NN=c1ccn(Cc2c(Cl)cccc2Cl)cc1 | 3.4
Fc1ccc(Cn2ccc(=NN=Cc3ccc(Cl)cc3)cc2)cc1 | 3.8
Brc1ccc(C=NN=c2ccn(CCCCCc3ccccc3)cc2)cc1 | 4
O=[N+]([O-])c1ccc(C=NN=c2ccn(Cc3ccccc3)cc2)cc1 | 3.8
Fc1ccc(Br)cc1Cn1ccc(=NN=Cc2ccc(Cl)cc2)cc1 | 4
C(=NN=c1ccn(CCCc2ccccc2)cc1)c1cccc2ccccc12 | 4.3
COc1ccc(C=NN=c2ccn(Cc3c(Cl)cccc3Cl)cc2)cc1 | 3.4
Clc1cccc(Cl)c1C=NN=c1ccn(Cc2c(Cl)cccc2Cl)cc1 | 4
Fc1ccc(C=NN=c2ccn(Cc3ccccc3)cc2)cc1 | 3.7
O=[N+]([O-])c1ccc(C=NN=c2ccn(CCCCc3ccccc3)cc2)cc1 | 3.9
COc1cccc(OC)c1C=NN=c1ccn(-c2c(Cl)cccc2Cl)cc1 | 3.4
C(=NN=c1ccn(Cc2ccccc2)cc1)c1ccc2ccccc2c1 | 4.2
Fc1cccc(C=NN=c2ccn(Cc3ccccc3Br)cc2)c1 | 3.9
Cc1cccc(Cn2ccc(=NN=CCCc3ccccc3)cc2)c1C | 3.9
Clc1ccc(C=NN=c2ccn(CCCc3ccccc3)cc2)cc1 | 3.9
Cc1ccc(C=NN=c2ccn(Cc3ccc4ccccc4c3)cc2)cc1 | 4
Cc1ccc(C)c(-n2ccc(=NN=Cc3ccc(Cl)cc3)cc2)c1 | 4

Second part, the compound after the results:

logP | Structure (SMILES)
4 | Cc1ccccc1C=NN=c1ccn(CCCc2ccccc2)cc1
4.3 | Clc1cccc(Cl)c1Cn1ccc(=NN=Cc2cccc3ccccc23)cc1
3.4 | COc1ccccc1C=NN=c1ccn(Cc2ccc3ccccc3c2)cc1
3.4 | COc1cccc(OC)c1C=NN=c1ccn(CCCc2ccccc2)cc1
3.3 | Cc1cccc(C)c1C=NN=c1ccn(CCc2ccccc2)cc1
3.4 | Cc1cccc(C)c1C=NN=c1ccn(CCCCCc2ccccc2)cc1
4.4 | C(=NN=c1ccn(CCc2ccccc2)cc1)c1c2ccccc2cc2ccccc12
4 | Cc1cccc(C=NN=c2ccn(CCCc3ccccc3)cc2)c1
4 | O=[N+]([O-])c1ccc(C=NN=c2ccn(CCCCCc3ccccc3)cc2)cc1
3.7 | Fc1cccc(C=NN=c2ccn(Cc3ccccc3)cc2)c1
3.8 | Clc1ccccc1C=NN=c1ccn(Cc2ccccc2)cc1
4.4 | Clc1cccc(Cl)c1Cn1ccc(=NN=Cc2c3ccccc3cc3ccccc23)cc1
3.9 | Fc1cc(Br)ccc1Cn1ccc(=NN=CCCc2ccccc2)cc1
3.4 | COc1ccccc1C=NN=c1ccn(CCCc2ccccc2)cc1
4 | C(CCc1ccccc1)=NN=c1ccn(CCCc2ccccc2)cc1
3.8 | Cc1cccc(C=NN=c2ccn(CCCN3C(=O)c4ccccc4C3=O)cc2)c1
4 | Clc1cccc(Cl)c1C=NN=c1ccn(CCCCc2ccccc2)cc1
4 | Cc1ccc(C=NN=c2ccn(CC=Cc3ccccc3)cc2)cc1
3.9 | C(Cc1ccccc1)=NN=c1ccn(CCCc2ccccc2)cc1
3.4 | COc1ccc(C=NN=c2ccn(CCCc3ccccc3)cc2)cc1
3.9 | Cc1ccc(C=NN=c2ccn(Cc3c(Cl)cccc3Cl)cc2)cc1
3.3 | Cc1cccc(C)c1C=NN=c1ccn(CCCc2ccccc2)cc1
3.9 | C(Cc1ccccc1)=NN=c1ccn(Cc2ccccc2)cc1
4.4 | C(=NN=c1ccn(CCCc2ccccc2)cc1)c1c2ccccc2cc2ccccc12

logP | Structure (SMILES)
3.9 | Clc1ccccc1C=NN=c1ccn(Cc2c(Cl)cccc2Cl)cc1
4 | O=[N+]([O-])c1ccc(C=NN=c2ccn(Cc3c(Cl)cccc3Cl)cc2)cc1
3.9 | Brc1ccc(C=NN=c2ccn(Cc3ccccc3)cc2)cc1
3.9 | Brc1ccc(C=NN=c2ccn(CCCc3ccccc3)cc2)cc1
3.9 | Clc1ccc(C=NN=c2ccn(CC=Cc3ccccc3)cc2)cc1
3.3 | COc1ccc(C=NN=c2ccn(Cc3ccccc3)cc2)cc1
3.9 | Cc1ccccc1C=NN=c1ccn(Cc2c(Cl)cccc2Cl)cc1
3.9 | O=[N+]([O-])c1ccc(C=NN=c2ccn(CCc3ccccc3)cc2)cc1
3.4 | COc1ccc(C=NN=c2ccn(CCCCc3ccccc3)cc2)cc1
4 | Clc1cccc(Cl)c1C=NN=c1ccn(CCCCCc2ccccc2)cc1
3.9 | Brc1ccc(C=NN=c2ccn(CCCCc3ccccc3)cc2)cc1
4.4 | C(=NN=c1ccn(CCCCCc2ccccc2)cc1)c1cccc2ccccc12
3.4 | COc1cccc(OC)c1C=NN=c1ccn(CCc2ccccc2)cc1
4.1 | Cc1ccc(C=NN=c2ccn(CCCCCc3ccccc3)cc2)cc1
3.9 | Cc1ccccc1C=NN=c1ccn(Cc2ccccc2)cc1
3.9 | Clc1cccc(Cl)c1Cn1ccc(=NN=Cc2ccc(Br)cc2)cc1
3.9 | Clc1cccc(Cl)c1C=NN=c1ccn(Cc2ccccc2)cc1
3.3 | COc1ccccc1C=NN=c1ccn(Cc2ccccc2)cc1
3.5 | COc1cccc(OC)c1C=NN=c1ccn(CCCCCc2ccccc2)cc1
4.4 | C(=NN=c1ccn(Cc2ccc3ccccc3c2)cc1)c1cccc2ccccc12
3.3 | Oc1ccccc1C=NN=c1ccn(CCc2ccccc2)cc1
3.3 | Oc1ccccc1C=NN=c1ccn(CCCc2ccccc2)cc1
3.3 | Oc1ccccc1C=NN=c1ccn(Cc2c(Cl)cccc2Cl)cc1
4.3 | C(=NN=c1ccn(CCc2ccccc2)cc1)c1cccc2ccccc12
